The test system of one experiment is primary human FL B cells. The experiment is described as follows: BCR signaling (pSyk, pERK) in anti-IgG-stimulated primary FL B cells. Type of experiment: cell-based. Conditions: solHVEM 10 μg/ml. As to the method: FIG. 4A-E. HVEM blocks BCR signaling in a cell autonomous and BTLA dependent manner. FIG. 4A and FIG. 4B, Quantification of FACS analysis of phosphorylated BTK (pBTK) expression in BCL1 cells after stimulation with anti-IgM in the presence of solHVEM (10 μg/m1) or Ibrutinib (10 nM) without (FIG. 4A) or with (FIG. 4B) the knockdown of BTLA (shBTLA); FIG. 4C, FACS analysis of BTLA expression on purified primary human FL B cells distinguishes samples with high (BTLA^hi) and low (BTLAlo) surface BTLA expression); FIG. 4D, FACS analysis for the indicated signaling molecules in human primary FL B cells that were BTLA^hi or BTLAlo and stimulated with anti-human IgG (3 min; 10 μg/ml and H2O2 1 mM) in the presence or absence of the soluble HVEM ectodomain (solHVEM; 10 μg/ml) (right); FIG. 4E, Percentage of pSyk inhibition was calculated by comparing the ratio of MFI of pSyk+/−solHVEM and was correlated to BTLA ratio of MFI (r=0.697, p=0.03, Purified FL B cells, n=10, grade 1 and grade 2).
FIG. 11. Effect of HVEM on murine and human FL B cells. […]
Loss of HVEM and BTLA leads to BCR activation in murine lymphomas (FIGS. 2G and 3F). […] Briefly, the BCR signaling pathway in BCL1 mouse lymphoma cells was stimulated with IgM in the presence or absence of solHVEM (10 μg/ml) or the pharmacological BTK inhibitor ibrutinib (10 nM) and BTK phosphorylation was measured as an indicator of BCR pathway activation by flow cytometry. […] BTLA expression was analyzed across ten samples of purified human FL B cells by FACS, and the samples were divided into BTLA″ and BTLA^10 groups (FIG. 4C). […]
Purified IgGpos FL B cells were stimulated using FITC-conjugated goat anti-human IgG (Invitrogen, […]) in the presence of H2O2 (1 mM) with or without solHVEM (10 μg/mL). […] Phosphoprotein activation was quantified using Alexa 647-conjugated anti-pSyk (clone 17A/p-ZAP70), anti-pBLNK (clone j117-1278), or anti-pERK1/2 (clone 20A, BD Biosciences) and analyzed on B cells expressing clonal heavy and light chain gated using the anti-IgG FITC Ab and a PE-conjugated anti-kappa Ab (Southern Biotech).

The subject of experiment [1] is myc-Bc12 lymphoma cell line. The experiment can be described thus: Cell viability by CellTiterGlo. Type of experiment: cell-based, mouse. Conditions: 5 ug/ml; 24 hours. As to the method:
FIG. 18. sTNFRSF14 decreases cell viability in vitro. Cells of the myc-Bc12 lymphoma cell line were plated at a density of 1×10^5 cells/ml and they were treated with sTNFRSF14 (5 ug/ml) or vehicle. After 24 hours of treatment cell viability was assessed using CellTiterGlo reagent.

Regarding “solHVEM: Leu39-Val202 soluble HVEM ectodomain polypeptide of SEQ ID NO. 8”, in the experiment on primary human FL B cells (BTLAhi primary FL B cells), the “ERK inhibition in BTLAhi cells” value was “inhibition” and the “SYK inhibition in BTLAhi cells” value is “inhibition”. Besides, the “SYK and ERK inhibition in BTLAlo cells” value in the experiment with primary human FL B cells (BTLAlo primary FL B cells) is on record as “little effect”.

B1: sTNFRSF14: Pro37-Val202 soluble HVEM ectodomain polypeptide of SEQ ID NO. 6 (protein, listed as Homo sapiens)
chain: PALPSCKEDEYPVGSECCPKCSPGYRVKEACGELTGTVCEPCPPGTYIAHLNGLSKCLQCQMCDPAMGLRASRNCSRTENAVCGCSPGHFCIVQDGDHCAACRAYATSSPGQRVQKGGTESQDTLCQNCPPGTFSPNGTLEECQHQTKCSWLVTKAGAGTSSSHWV
In the case of B1, the cell viability entry in experiment [1] is given as “modest decrease”.
